Substitutions are numbered along the chain they refer to.

The values below come from US20210403864A1, “METHODS AND COMPOSITIONS FOR TREATING ACTIVATED G-ALPHA Q MUTANT CANCERS OR MELANOCYTIC MALIGNANCIES” (Memorial Sloan Kettering Cancer Center, priority 2018, published 2021).

Common to all, as to assay: IP1 accumulation assay in transiently transfected HEK293T cells
Common to all, as to format: cell-based
Holding throughout (details): 24-hour treatment

One experiment deals with T1, GNAQ^R183Q (Homo sapiens, UniProt P50148, R183Q).
T1 construct: host or cells: melan-a (immortalized mouse melanocytes), retroviral transduction with MSCV-Puro
T1 sequence (P50148 1-359 R183Q): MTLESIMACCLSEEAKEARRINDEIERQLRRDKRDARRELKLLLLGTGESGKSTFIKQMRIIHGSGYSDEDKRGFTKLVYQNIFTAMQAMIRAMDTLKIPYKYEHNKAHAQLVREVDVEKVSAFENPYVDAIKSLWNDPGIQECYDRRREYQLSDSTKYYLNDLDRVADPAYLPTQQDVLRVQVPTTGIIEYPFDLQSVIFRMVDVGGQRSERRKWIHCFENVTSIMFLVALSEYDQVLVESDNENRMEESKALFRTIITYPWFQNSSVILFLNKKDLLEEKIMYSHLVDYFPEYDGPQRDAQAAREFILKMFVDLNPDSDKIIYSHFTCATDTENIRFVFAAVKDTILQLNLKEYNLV
As to the method: (§1) Cells were treated with YM at increasing doses for 24 hours. Error bars, s.e.m. from three biological replicates, each with three technical replicates.
(§2) Exogenous Gene Expression. HEK293T cells were transiently transfected to express vectors containing synthetic CYSLTR2 (Moore A R, et al., Nat Genet. 48(6):675 (2016)) and GNAQ. Genewiz was used to codon optimize these sequences for expression in mammalian cells. The human GNAQ α-subunit plasmids encoding for GNAQ mutants Q209L, R183Q and G48V were generated by Quick Change (Agilent Technologies, Santa Clara, Calif.) site-directed mutagenesis. HEK293T cells were transiently transfected with the plasmids encoding for GNAQ WT and mutants subcloned into pcDNA3.1(+) using Lipofectamine according to the manufacturer's instructions. Briefly, 9,000 HEK293T cells were transfected in low-volume 384-well plates with 11 ng of total DNA/well for 24 hours. Human cDNAs for WT CYSLTR2 and GNAQ were obtained from Origene and cloned into MSCV-Puro (Addgene plasmid #68469) for stable expression in melan-a cells via retroviral transduction with X-tremeGENE 9 (Sigma-Aldrich, St. Louis Mo.). Quikchange primers were used to introduce the various mutant constructs. All constructs were confirmed by sequencing. The primers used in the experiments described herein are provided below: […]
(§3) IP1 Accumulation Assay. IP1 concentrations in GNAQ-transfected HEK293T cells, GNAQ-expressing melan-a cells and uveal melanoma cells was measured using a competitive homogenous time resolved fluorescence (HTRF) assay (CisBio, Bedford, Mass.). Briefly, 9,000 transiently transfected-HEK293T cells, 5,000 melan-a cells and 5,000 uveal melanoma cells were seeded in low-volume 384-well plates in 7 μL media for 24 hours prior YM-254890 treatment. Cells were then treated with various concentrations of YM-254890 diluted in the appropriate media at 37° C. for 3 hours or 24 hours. […] Following incubation, cells were lysed by adding 3 μL/well of d2-labeled IP1 analogue as the fluorescence acceptor and the Terbium cryptate-labeled anti-IP1 mAb as the fluorescence donor, diluted in the kit-supplied lysis buffer. The plates were incubated overnight at RT and time-resolved fluorescence signals were read using the BioTek Synergy NEO plate reader (BioTek Instruments, Winooski, Vt.) at 620 nm and […]. Results were calculated as a 665 nm/620 nm signal ratio, and IP1 concentrations were interpolated from a standard curve prepared using the supplied IP1 calibrator. […] Dose-response curves and bar graphs were analyzed using GraphPad Prism 7.0 software. […]

The target of the next experiment is T2, GNAQ^Q209L (Homo sapiens, UniProt P50148, Q209L).
T2 construct: host or cells: melan-a (immortalized mouse melanocytes), retroviral transduction with MSCV-Puro
T2 sequence (P50148 1-359 Q209L): T1 sequence (P50148 1-359 R183Q) with Q183R, Q209L
As to the method:
as §1, §2, §3

The next experiment concerns the target T3, GNAQ^G48V (Homo sapiens, UniProt P50148, G48V).
T3 construct: host or cells: melan-a (immortalized mouse melanocytes), retroviral transduction with MSCV-Puro
T3 sequence (P50148 1-359 G48V): T1 sequence (P50148 1-359 R183Q) with G48V, Q183R
On the procedure: as §1, §2, §3

Regarding YM-254890, the “fold less sensitive to YM compared to CYSLTR2^L129Q and GNAQ^G48V (IP1 accumulation)” value on GNAQ^R183Q is listed as around 20 fold. Also, on GNAQ^Q209L, the “inhibition of signaling (IP1 accumulation)” value was “incompletely/poorly inhibited” and the “relative sensitivity to YM (IP1 accumulation)” value is given as “most resistant”. The “potency of inhibition of IP1 accumulation” value at GNAQ^G48V is recorded as “subnanomolar potency”.
